Test [1] has as its target T1, Prostaglandin G/H synthase 1 (Ovis aries, UniProt P05979).
T1 sequence (P05979 whole entry): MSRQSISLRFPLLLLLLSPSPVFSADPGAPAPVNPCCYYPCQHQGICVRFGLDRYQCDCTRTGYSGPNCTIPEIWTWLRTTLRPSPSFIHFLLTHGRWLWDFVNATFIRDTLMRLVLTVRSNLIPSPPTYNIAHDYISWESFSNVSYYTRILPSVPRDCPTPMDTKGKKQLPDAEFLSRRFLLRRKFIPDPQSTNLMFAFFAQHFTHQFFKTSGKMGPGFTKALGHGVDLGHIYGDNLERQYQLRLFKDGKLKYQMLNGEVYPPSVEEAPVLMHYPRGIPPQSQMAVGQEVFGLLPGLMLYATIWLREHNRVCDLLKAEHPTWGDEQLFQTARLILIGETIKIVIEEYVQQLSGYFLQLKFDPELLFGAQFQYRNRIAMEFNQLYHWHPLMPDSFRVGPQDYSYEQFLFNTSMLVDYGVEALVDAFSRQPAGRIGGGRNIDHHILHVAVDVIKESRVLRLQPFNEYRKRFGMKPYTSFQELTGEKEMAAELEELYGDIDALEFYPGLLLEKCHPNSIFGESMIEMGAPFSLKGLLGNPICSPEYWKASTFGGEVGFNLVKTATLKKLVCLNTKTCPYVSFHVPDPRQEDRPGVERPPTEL
In words: In vitro inhibitory concentration against ovine COX-1.

Test [2] addresses T2, Prostaglandin G/H synthase 2 (Homo sapiens, UniProt P35354).
T2 sequence (P35354 whole entry): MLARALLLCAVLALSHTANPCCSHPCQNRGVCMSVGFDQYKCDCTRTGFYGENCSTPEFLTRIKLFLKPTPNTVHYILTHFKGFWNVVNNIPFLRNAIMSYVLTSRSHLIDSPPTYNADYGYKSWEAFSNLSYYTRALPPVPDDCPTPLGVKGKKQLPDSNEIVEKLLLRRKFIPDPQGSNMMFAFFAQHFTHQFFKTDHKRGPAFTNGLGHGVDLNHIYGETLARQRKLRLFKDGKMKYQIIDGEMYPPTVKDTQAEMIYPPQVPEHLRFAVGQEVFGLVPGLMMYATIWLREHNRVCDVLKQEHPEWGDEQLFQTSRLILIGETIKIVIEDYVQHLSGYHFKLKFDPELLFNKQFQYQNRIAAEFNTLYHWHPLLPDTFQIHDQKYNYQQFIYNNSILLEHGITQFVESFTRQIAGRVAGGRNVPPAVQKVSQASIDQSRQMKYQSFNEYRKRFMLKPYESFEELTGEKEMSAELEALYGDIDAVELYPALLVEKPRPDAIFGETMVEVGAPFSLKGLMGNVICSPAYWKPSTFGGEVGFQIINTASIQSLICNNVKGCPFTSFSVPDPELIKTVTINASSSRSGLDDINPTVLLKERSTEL
In words: In vitro inhibitory concentration against recombinant human Prostaglandin G/H synthase 2 obtained from baculovirus.

The term IC50 denotes the concentration needed to halve the response being measured.

Turning to `CS(=O)(=O)c1ccc(-c2ccccc2-c2ccccc2)cc1`, in test [1], the concentration for half-maximal inhibition (IC50) was above 1000 µM.
As for `CS(=O)(=O)c1ccc(-c2ccc([N+](=O)[O-])cc2-c2ccccc2)cc1`, the IC50 was 44 µM in test [2] and above 100 µM in test [1].
As to `CS(=O)(=O)c1ccc(-c2ccccc2-c2cncnc2)cc1`, the IC50 in test [2] and in test [1] was above 300 µM in each case.
In the case of `CS(=O)(=O)c1ccc(-c2ccccc2-c2ccc3ccccc3n2)cc1`, the IC50 in test [2] is 57 µM; in test [1], above 1000 µM.
For `CS(=O)(=O)c1ccc(-c2ccccc2-c2ccncc2)cc1`, in that order: above 300 µM and above 300 µM.
For the compound `CS(=O)(=O)c1ccc(-c2ccccc2N2CCCCC2)cc1`, the half-inhibitory concentration (IC50) came out at 14 µM in test [2] and 43 µM in test [1].
Consider `CS(=O)(=O)c1ccc(-c2cc([N+](=O)[O-])ccc2-c2ccccc2)cc1`, for which the IC50 in test [2] is 38 µM; in test [1], above 300 µM.
For `COc1ccc2cc(-c3ccccc3-c3ccc(S(C)(=O)=O)cc3)ccc2c1`, in that order: 30 µM and above 1000 µM.
The matching figures for `CS(=O)(=O)c1ccc(-c2cc3ccccc3cc2-c2ccccc2)cc1`: 41 µM and above 300 µM.
The matching figures for `CS(=O)(=O)c1ccc(-c2ccccc2C2CCCCC2)cc1`: 31 µM and above 1000 µM.
As for `CS(=O)(=O)c1ccc(-c2cc(N)ccc2-c2ccccc2)cc1`, the IC50 in test [2] was 194 µM; in test [1], 35 µM.
Regarding `CN1CC=C(c2ccccc2-c2ccc(S(C)(=O)=O)cc2)CC1`, the IC50 in test [2] and in test [1] was above 300 µM throughout.
Regarding `CS(=O)(=O)c1ccc(-c2ccccc2Oc2ccccc2)cc1`, the IC50 in test [2] was 33 µM; in test [1] it was above 1000 µM.
On to `CS(=O)(=O)c1ccc(-c2nccnc2-c2ccccc2)cc1`, for which the IC50 in test [2] and in test [1] was above 300 µM throughout.
With `CS(=O)(=O)c1ccc(-c2cc(O)ccc2-c2ccccc2)cc1`, the IC50 in test [2] stood at 147 µM; in test [1], 404 µM.
`COC(=O)c1ccc(-c2ccccc2)c(-c2ccc(S(C)(=O)=O)cc2)c1`: the IC50 in test [2] is 48 µM; in test [1] it was above 300 µM.
Regarding `CS(=O)(=O)c1ccc(-c2ccccc2C2=CCCCC2)cc1`, the IC50 in test [2] was 33 µM; in test [1], above 1000 µM.
For `CS(=O)(=O)c1ccc(-c2ccccc2Cc2ccccc2)cc1`, the IC50 in test [2] and in test [1] was above 300 µM throughout.
Turning to `CS(=O)(=O)c1ccc(-c2ccccc2-c2cccnc2)cc1`, the IC50 in test [2] is 87 µM; in test [1], above 300 µM.
Regarding `CS(=O)(=O)c1ccc(-c2ccccc2-c2ccccn2)cc1`, the half-inhibitory concentration (IC50) in test [2] and in test [1] was above 300 µM each time.
Turning to `CS(=O)(=O)c1ccc(-c2ccc(N)cc2-c2ccccc2)cc1`, the IC50 came out at 254 µM in test [2] and 17 µM in test [1].
As for `CS(=O)(=O)c1ccc(-c2ncccc2-c2ccccc2)cc1`, the IC50 in test [2] and in test [1] was above 300 µM each time.
For the compound `CS(=O)(=O)c1ccc(-c2cc(C(=O)O)ccc2-c2ccccc2)cc1`, the IC50 in test [2] is above 300 µM; in test [1] it was 232 µM.
Compound `CS(=O)(=O)c1ccc(-c2cccnc2-c2ccccc2)cc1` displayed an IC50 in test [1] above 1000 µM.

The values are drawn from ChEMBL document CHEMBL1131663, “Terphenyl cyclooxygenase-2 (COX-2) inhibitors: optimization of the central ring and o-biphenyl analogs” (Bioorg Med Chem Lett, 1999).
